Measurements published in ChEMBL document CHEMBL1201862, “PubChem BioAssay data set” (2004).
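Values below derive from 48-hour exposures of cells grown in 96-well plates, with endpoints linearly interpolated between the two concentrations bracketing the appropriate inhibition level. GI50 = concentration required for 50% inhibition of growth.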 The source made the active and inactive calls. Rule as the data show it: active = GI50 up to about 1.1 µM and inactive = higher.

Assays:
Test in all cases: NCI anticancer screen, dose series, 48 h
HCT-15 = system: HCT-15
CCRF-CEM = system: CCRF-CEM
HCT-116 = system: HCT-116
SK-OV-3 = system: SK-OV-3
U-251 = system: U-251
NCI/ADR-RES = system: NCI/ADR-RES
CAKI-1 = system: CAKI-1
A549 = system: A549
SK-MEL-2 = system: SK-MEL-2
M14 = system: M14
SK-MEL-5 = system: SK-MEL-5
K562 = system: K562
MDA-N = system: MDA-N
HOP-92 = system: HOP-92
OVCAR-5 = system: OVCAR-5
LOX IMVI = system: LOX IMVI
SK-MEL-28 = system: SK-MEL-28
UACC-257 = system: UACC-257
OVCAR-4 = system: OVCAR-4
Malme-3M = system: Malme-3M

SMILES	GI50 (HCT-15) [µM]	GI50 (CCRF-CEM)	GI50 (HCT-116)	GI50 (SK-OV-3)	GI50 (U-251)	GI50 (NCI/ADR-RES)	GI50 (CAKI-1)	GI50 (A549)	GI50 (SK-MEL-2)	GI50 (M14)	GI50 (SK-MEL-5)	GI50 (K562)	GI50 (MDA-N)	GI50 (HOP-92)	GI50 (OVCAR-5)	GI50 (LOX IMVI)	GI50 (SK-MEL-28)	GI50 (UACC-257)	GI50 (OVCAR-4)	GI50 (Malme-3M)
c1ccc2/c3[nH]/c(c2c1)=N\c1ccc(cc1)-c1nc2ccc(cc2o1)/N=c1/[nH]/c(c2ccccc12)=N/c1ccc2nc(oc2c1)-c1ccc(cc1)\N=3	3.1	2.26 µM (inactive)	32.8 µM (inactive)	72.8 µM (inactive)	20.1 µM (inactive)	20.5 µM (inactive)	35.4 µM (inactive)	26.8 µM (inactive)	38.8 µM (inactive)	53.8 µM (inactive)	12.4 µM (inactive)	15.8 µM (inactive)	27.4 µM (inactive)	37.3 µM (inactive)	> 100 µM (inactive)	29.4 µM (inactive)	24.5 µM (inactive)	> 100 µM (inactive)		
C=C1c2nc3ccccc3n2C=C(c2ccc(Cl)cc2)N1c1ccc(OCCN2CCOCC2)cc1	12.7		26.2 µM (inactive)	> 100 µM (inactive)	30.5 µM (inactive)	12.3 µM (inactive)		27.4 µM (inactive)	6.73 µM (inactive)	15.7 µM (inactive)	13.4 µM (inactive)	9.82 µM (inactive)	42.2 µM (inactive)	50.8 µM (inactive)	> 100 µM (inactive)	11 µM (inactive)	28.9 µM (inactive)	22.7 µM (inactive)	12.1 µM (inactive)	52 µM (inactive)
CCC(=O)n1c(=O)n(-c2ccc([N+](=O)[O-])cc2)c(=O)n1C(=O)CC	> 100	> 100 µM (inactive)	> 100 µM (inactive)	> 100 µM (inactive)	> 100 µM (inactive)	> 100 µM (inactive)	> 100 µM (inactive)	> 100 µM (inactive)	> 100 µM (inactive)	> 100 µM (inactive)	> 100 µM (inactive)	> 100 µM (inactive)	> 100 µM (inactive)		> 100 µM (inactive)	> 100 µM (inactive)	> 100 µM (inactive)	> 100 µM (inactive)	> 100 µM (inactive)	
CCOC(=O)/C=C(/N=P(c1ccccc1)(c1ccccc1)c1ccccc1)C(F)(F)F	> 10	> 10 µM (inactive)	> 10 µM (inactive)	> 100 µM (inactive)		> 10 µM (inactive)		> 10 µM (inactive)	> 10 µM (inactive)	> 10 µM (inactive)	> 10 µM (inactive)	> 10 µM (inactive)	> 10 µM (inactive)	1.44 µM (inactive)	> 10 µM (inactive)	> 10 µM (inactive)	> 10 µM (inactive)	> 10 µM (inactive)	> 10 µM (inactive)	> 10 µM (inactive)
CCSc1[nH]c(Nc2nc(-c3ccccc3)n(-c3ccccc3)n2)c(C(N)=O)c1C(N)=O	> 10	> 10 µM (inactive)		> 10 µM (inactive)			> 10 µM (inactive)	> 10 µM (inactive)		> 10 µM (inactive)	> 10 µM (inactive)	> 10 µM (inactive)	> 10 µM (inactive)	> 10 µM (inactive)		> 10 µM (inactive)	> 10 µM (inactive)	> 10 µM (inactive)	5.28 µM (inactive)	> 10 µM (inactive)
C[N+](C)(C)C1(C(=O)[O-])CC1	> 100	> 100 µM (inactive)	> 100 µM (inactive)		> 100 µM (inactive)	> 100 µM (inactive)		> 100 µM (inactive)		> 100 µM (inactive)	> 100 µM (inactive)	> 100 µM (inactive)	> 100 µM (inactive)	> 100 µM (inactive)	> 100 µM (inactive)	> 100 µM (inactive)	> 100 µM (inactive)	> 100 µM (inactive)	> 100 µM (inactive)	> 100 µM (inactive)
Nc1nc(NNc2ccccc2F)cc(=O)[nH]1	> 100	78.5 µM (inactive)	> 100 µM (inactive)		82.2 µM (inactive)	> 100 µM (inactive)		> 100 µM (inactive)		> 100 µM (inactive)	> 100 µM (inactive)	58.6 µM (inactive)	> 100 µM (inactive)		> 100 µM (inactive)	42 µM (inactive)	> 100 µM (inactive)	> 100 µM (inactive)	> 100 µM (inactive)	> 100 µM (inactive)
COc1nc(C#CC2CCCCC2)nc(OC)n1	1.38	1.12 µM (inactive)	0.401 µM (active)	13.1 µM (inactive)	3.39 µM (inactive)	1.64 µM (inactive)	3.39 µM (inactive)	3.95 µM (inactive)	3.81 µM (inactive)	2.38 µM (inactive)	3.06 µM (inactive)	3.92 µM (inactive)	3.28 µM (inactive)		2.51 µM (inactive)	1.51 µM (inactive)	8.18 µM (inactive)	11 µM (inactive)	5.42 µM (inactive)	1.95 µM (inactive)
[O-][n+]1onc2c1/C(=N/O)CCC2	> 100	> 100 µM (inactive)	> 100 µM (inactive)	> 100 µM (inactive)		> 100 µM (inactive)	> 100 µM (inactive)	> 100 µM (inactive)	> 100 µM (inactive)	> 100 µM (inactive)	> 100 µM (inactive)	> 100 µM (inactive)	> 100 µM (inactive)		> 100 µM (inactive)	> 100 µM (inactive)	> 100 µM (inactive)	> 100 µM (inactive)	> 100 µM (inactive)	> 100 µM (inactive)
CC(=O)OCC1OC(SC2=N/C(=C\c3cc4c(=O)c5ccccc5sc4s3)C(=O)N2c2ccccc2)C(OC(C)=O)C(OC(C)=O)C1OC(C)=O (stereo not drawn)	> 100		37.6 µM (inactive)		23.9 µM (inactive)	> 100 µM (inactive)	> 100 µM (inactive)		32 µM (inactive)		> 100 µM (inactive)	53.1 µM (inactive)	> 100 µM (inactive)		62.4 µM (inactive)	55.1 µM (inactive)	> 100 µM (inactive)	> 100 µM (inactive)	74.3 µM (inactive)	> 100 µM (inactive)
CCc1c(O)nc(Nc2nc3ccccc3[nH]2)[nH]c1=O	> 100	> 100 µM (inactive)	> 100 µM (inactive)	> 100 µM (inactive)	> 100 µM (inactive)	> 100 µM (inactive)		> 100 µM (inactive)	> 100 µM (inactive)	> 100 µM (inactive)	> 100 µM (inactive)	> 100 µM (inactive)	> 100 µM (inactive)	27.7 µM (inactive)	> 100 µM (inactive)	> 100 µM (inactive)	> 100 µM (inactive)	> 100 µM (inactive)	> 100 µM (inactive)	> 100 µM (inactive)
O=C1C(Cl)=C(Oc2ccc([N+](=O)[O-])cc2)C(=O)c2c(O)ccc(O)c21	25.6	2.12 µM (inactive)	49.3 µM (inactive)	> 100 µM (inactive)	> 100 µM (inactive)	> 100 µM (inactive)		> 100 µM (inactive)		> 47.8 µM (inactive)	> 84.1 µM (inactive)	13.3 µM (inactive)	21 µM (inactive)	28.3 µM (inactive)	> 100 µM (inactive)		> 50.2 µM (inactive)	> 100 µM (inactive)	51.8 µM (inactive)	18.1 µM (inactive)
